Test results reported in ChEMBL document CHEMBL5143510, “Structure modification and biological evaluation of indole-chalcone derivatives as anti-tumor agents through dual targeting tubulin and TrxR” (Eur J Med Chem, 2022).
Counter-ions that a name gives are not always drawn.

Key:
MHCC97H [1] = test: Antiproliferative activity against human MHCC97H cells assessed as reduction in cell viability incubated for 48 hrs by MTT assay; assay type: functional, cell-based
MCF7 = test: Antiproliferative activity against human MCF7 cells assessed as reduction in cell viability incubated for 48 hrs by MTT assay; assay type: functional, cell-based; details: MCF7, 48 h
HCT-8 = test: Antiproliferative activity against human HCT-8 cells assessed as reduction in cell viability incubated for 48 hrs by MTT assay; assay type: functional, cell-based; details: HCT-8, 48 h
HeLa = test: Antiproliferative activity against human HeLa cells assessed as reduction in cell viability incubated for 48 hrs by MTT assay; assay type: functional, cell-based
A2780 = test: Antiproliferative activity against human A2780 cells assessed as reduction in cell viability incubated for 48 hrs by MTT assay; assay type: functional, cell-based; details: A2780, 48 h
[2] = Antiproliferative activity against paclitaxel resistant human A2780/PTX cells assessed as reduction in cell viability incubated for 48 hrs by MTT assay; assay type: functional, cell-based
[3] = Resistance index, ratio of IC50 for antiproliferative activity against paclitaxel resistant human A2780/PTX cells to IC50 for antiproliferative activity against human A2780 cells; assay type: functional
A549 = test: Antiproliferative activity against human A549 cells assessed as reduction in cell viability incubated for 48 hrs by MTT assay; assay type: functional, cell-based; details: A549, 48 h
MHCC97H [4] = test: Antitumor activity against human MHCC97H cells xenografted in BALB/c mouse assessed as tumor volume at 30 mg/kg, ip administered every other day for 30 days; assay type: functional; details: time 30 day
MHCC97H [5] = test: Antitumor activity against human MHCC97H cells xenografted in BALB/c mouse assessed as tumor growth inhibition at 30 mg/kg, ip administered every other day for 30 days; assay type: functional; details: 720 h, time 30 day, read-out: TGI
MHCC97H [6] = test: Antitumor activity against human MHCC97H cells xenografted in BALB/c mouse assessed as tumor weight at 30 mg/kg, ip administered every other day for 30 days; assay type: functional; details: time 30 day
[7] = Resistance index, ratio of IC50 for antiproliferative activity against vincristine resistant human HCT-8/VCR cells to IC50 for antiproliferative activity against human HCT-8 cells; assay type: functional
[8] = Antiproliferative activity against vincristine resistant human HCT-8/VCR cells assessed as reduction in cell viability incubated for 48 hrs by MTT assay; assay type: functional, cell-based
NCI/ADR-RES = test: Antiproliferative activity against adriamycin resistant human MCF7/ADR cells assessed as reduction in cell viability incubated for 48 hrs by MTT assay; assay type: functional, cell-based
[9] = Inhibition of TrxR (unknown origin) using DTNB as substrate incubated for 5 mins in presence of NADPH followed by substrate addition by microplate reader analysis; design: species or system Homo sapiens
[10] = Inhibition of TrxR in human MHCC97H cells using DTNB as substrate preincubated for 24 hrs in presence of NADPH followed by substrate addition by microplate reader analysis; assay type: cell-based

| SMILES | IC50 (MCF7) | IC50 (HCT-8) | IC50 (HeLa) | IC50 (A2780) | IC50 (A549) | IC50 (MHCC97H [1]) | also measured |
| --- | --- | --- | --- | --- | --- | --- | --- |
| COc1ccc(/C=C\c2cc(OC)c(OC)c(OC)c2)cc1O [COMBRETASTATIN A4] | 29 nM | 23 nM | 16 nM | – | – | 8 nM | – |
| CC(=O)O[C@H]1C(=O)[C@@]2(C)[C@H]([C@H](OC(=O)c3ccccc3)[C@]3(O)C[C@H](OC(=O)[C@H](O)[C@@H](NC(=O)c4ccccc4)c4ccccc4)C(C)=C1C3(C)C)[C@]1(OC(C)=O)CO[C@@H]1C[C@@H]2O [PACLITAXEL] | – | – | – | 21 nM | – | – | IC50 [2]: 344 nM; Ratio IC50 [3]: 16.4 |
| COc1ccc(/C=C\c2cc(OC)c(OC)c(OC)c2)cc1OP(=O)(O)O [FOSBRETABULIN] | – | – | – | – | – | – | Activity (MHCC97H [4]): 1031.1 mm3; inhibition in vivo at 30 mg/kg (MHCC97H [5]): 39.2%; Activity (MHCC97H [6]): 0.888 g |
| COc1cc(C(=O)/C=C/c2c[nH]c3ccccc23)cc([N+](=O)[O-])c1OC | 1290 nM | 1390 nM | 1350 nM | 1280 nM | 1510 nM | 830 nM | – |
| COc1ccc2c(/C=C/C(=O)c3cc(OC)c(OC)c([N+](=O)[O-])c3)cn(C)c2c1 | 1520 nM | 753 nM | 951 nM | 952 nM | 1020 nM | 562 nM | – |
| COc1cccc2c1C(=O)c1c(O)c3c(c(O)c1C2=O)C[C@@](O)(C(=O)CO)C[C@@H]3O[C@H]1C[C@H](N)[C@H](O)[C@H](C)O1 [DOXORUBICIN HYDROCHLORIDE] | – | – | – | – | – | – | IC50 (NCI/ADR-RES): 232000 nM |
| COc1cc(/C=C/C(=O)CC(=O)/C=C/c2ccc(O)c(OC)c2)ccc1O [CURCUMIN] | – | – | – | – | – | – | IC50 [9]: 29000 nM; IC50 [10]: 28800 nM |
| COc1cc(C(=O)/C=C/c2cn(C)c3ccccc23)cc([N+](=O)[O-])c1OC | 1770 nM | 1660 nM | 1960 nM | 1890 nM | 1060 nM | 850 nM | – |
| O=c1c2ccccc2[se]n1CCn1[se]c2ccccc2c1=O | – | – | – | – | – | – | Activity (MHCC97H [4]): 832.6 mm3; inhibition in vivo at 30 mg/kg (MHCC97H [5]): 51.7%; Activity (MHCC97H [6]): 1.119 g |
| COc1ccc2c(/C=C/C(=O)c3cc(OC)c(OC)c([N+](=O)[O-])c3)c[nH]c2c1 | 662 nM | 982 nM | 850 nM | 742 nM | 331 nM | 289 nM | – |

Second part, led by results:

| IC50 (MCF7) | IC50 (HCT-8) | IC50 (HeLa) | IC50 (A2780) | IC50 (A549) | SMILES | IC50 (MHCC97H [1]) | also measured |
| --- | --- | --- | --- | --- | --- | --- | --- |
| 505 nM | 455 nM | 356 nM | 156 nM | 106 nM | COc1ccc2c(/C=C/C(=O)c3cc(N)c(OC)c(OC)c3)cn(C)c2c1 | 198 nM | – |
| 101 nM | 138 nM | 131 nM | 139 nM | 115 nM | COc1ccc2c(/C=C/C(=O)c3cc(OC)c(OC)c(SC)c3)c[nH]c2c1 | 112 nM | – |
| 102 nM | 210 nM | 105 nM | 193 nM | 188 nM | COc1cc(C(=O)/C=C/c2cn(C)c3ccccc23)cc(SC)c1OC | 150 nM | – |
| 249 nM | 368 nM | 155 nM | 204 nM | 193 nM | COc1ccc2c(/C=C/C(=O)c3cc(N)c(OC)c(OC)c3)c[nH]c2c1 | 186 nM | – |
| – | 217 nM | – | – | – | CC[C@]1(O)C[C@H]2CN(CCc3c([nH]c4ccccc34)[C@@](C(=O)OC)(c3cc4c(cc3OC)N(C=O)[C@H]3[C@@](O)(C(=O)OC)[C@H](OC(C)=O)[C@]5(CC)C=CCN6CC[C@]43[C@@H]65)C2)C1 [VINCRISTINE] | – | Ratio IC50 [7]: 47; IC50 [8]: 10200 nM |
| 631 nM | 605 nM | 668 nM | 441 nM | 498 nM | COc1cc(C(=O)/C=C/c2cn(C)c3ccccc23)cc(N)c1OC | 289 nM | – |
| 166 nM | 157 nM | 167 nM | 145 nM | 156 nM | COc1ccc2c(/C=C/C(=O)c3cc(OC)c(OC)c(SC)c3)cn(C)c2c1 | 122 nM | – |
| 83 nM | 78 nM | 104 nM | 65 nM | 67 nM | COc1ccc2c(/C=C/C(=O)c3cc(OC)c(OC)c([Se]C)c3)c[nH]c2c1 | 58 nM | – |
| 44 nM | 25 nM | 32 nM | 26 nM | 15 nM | COc1ccc2c(/C=C(\C)C(=O)c3cc(OC)c(OC)c([Se]C)c3)cn(C)c2c1 | 15 nM | – |
| 186 nM | 167 nM | 159 nM | 169 nM | 152 nM | COc1cc(C(=O)/C=C/c2c[nH]c3ccccc23)cc(SC)c1OC | 131 nM | – |
| 595 nM | 577 nM | 529 nM | 351 nM | 342 nM | COc1cc(C(=O)/C=C/c2c[nH]c3ccccc23)cc(N)c1OC | 263 nM | – |
| 77 nM | 48 nM | 63 nM | 35 nM | 18 nM | COc1cc(C(=O)/C(C)=C/c2cn(C)c3ccccc23)cc([Se]C)c1OC | 26 nM | – |
| 59 nM | 32 nM | 34 nM | 25 nM | 12 nM | COc1cc(C(=O)/C(C)=C/c2c[nH]c3ccccc23)cc([Se]C)c1OC | 18 nM | – |
